Experimental data reported in PubChem BioAssay AID2060490 (Molecular Pharmacology Branch, DTP, NCI, 2025).
pIC50: −log10 of the molar value.

System: 885512-296-R-J2-PDC complex spheroid viability
Experiment: Anticancer human tumor 885512-296-R-J2-PDC patient-derived breast carcinoma cell line growth inhibition [GQUAD]
Settings: for pIC50: curve of first compound; for viability, T/C: stronger effect = lower value
Excerpt: DNA G-quadruplex Stabilizer Agents in Combinations in Complex Spheroids
A high-throughput screen of multi-cell type tumor spheroids was designed to identify active combinations of DNA G-quadruplex stabilizer agents and targeted small molecules. Complex spheroids include a stromal component modeled by human endothelial cells (HUVEC) and fibroblasts modeled by human mesenchymal stem cells (MSCs). The concentration ranges selected for each drug and investigational agent were based upon clinically achievable concentrations if the clinical Cmax of the agent was known.
Compounds. The drugs and investigational agents: pidnarulex (CX-5461; NSC782164), APTO-253 (NSC789042), BRACO-19 (NSC847499), peposertib (NSC802822), ceralasertib (NSC780249), elimusertib (NSC800525), camonsertib (NSC841442), AZD-1390 (NSC803789), olaparib (NSC753686), talazoparib (NSC767125), ART-558 (NSC835418), sotorasib (NSC818433), MRTX-1133 (NSC836407), SN-38 (NSC673596), topotecan (NSC609699), etoposide (NSC141540), doxorubicin (NSC123127), gemcitabine (NSC613327), 5-fluorouracil (NSC19893), paclitaxel (NSC125973), vemurafenib (NSC761431), panobinostat (NSC761190), R-306465 (JNJ-16241199; NSC773264), adavosertib (NSC754352), TP-3654 (NSC805149), carboplatin (NSC241240), KSQ-4279 (NSC840948), and staurosporine (NSC755774) were obtained from the National Cancer Institute (NCI) Developmental Therapeutics Program Chemical Repository (34). The FDA-approved anticancer drug set is available from the NCI Developmental Therapeutics Program. […] The stock solutions were prepared in dimethyl sulfoxide (DMSO, Sigma-Aldrich, St. Louis, MO, cat. D2650) at 800-fold the tested concentration and stored at -70 degrees C prior to their use. All drugs and investigational agents were tested over a range starting from a high concentration at or near the clinical Cmax and decreasing in half-log increments. If the clinical Cmax for an agent had not been determined, the highest concentration tested was 10 microM.
2.3 Cell Culture. All cells were maintained in an incubator at 37 degrees C and 5% CO2 with 95% humidity. The PDC lines were cultured according to standard operating procedures established by the NCI PDMR. All PDCs were thawed and cultured in Matrigel-coated flasks prepared with a working solution of 1X Ham's F-12 nutrient mix, without supplementation (Invitrogen, cat. 11765054), 100 U/mL penicillin-streptomycin (Invitrogen, cat. 15140122), and 2.5% Matrigel (Corning Inc., cat. 354248) for the first three passages. The 857933-349-R-J2-PDC line was cultured in 6C/Colon 1B media, which includes advanced DMEM/F-12 (Thermo Fisher Scientific, cat. 12634028), 10 mM HEPES (Thermo Fisher Scientific, cat. 15630080), 1X GlutaMAX supplement (Thermo Fisher Scientific, cat. 35050061), 0.1 mg/mL primocin (InvivoGen, cat. ant-pm-2), 10% defined fetal bovine serum, heat inactivated (HyClone Laboratories Inc., cat. SH30070.03HI), 50% L-WRN conditioned media (ATCC, cat. CRL-3276), 1.25 mM N-Acetyl-L-cysteine (Sigma-Aldrich, cat. A9165), 10 mM nicotinamide (Sigma-Aldrich, cat. N0636), 1X B-27 supplement (Thermo Fisher Scientific, cat. 17504044), 1X N-2 supplement (Thermo Fisher Scientific, cat. 17502048), 10 microM Y-27632 dihydrochloride (Tocris Bioscience, cat. 1254), and 50 ng/mL human EGF recombinant protein (Thermo Fisher Scientific, cat. PHG0311). The 485176-168-R4-J1-PDC line was cultured in Panc media, which includes all 6C/Colon 1B media components plus 100 ng/mL human FGF-10 (Thermo Fisher Scientific, cat. 100-26), 500 nM SB-431542 (Selleckchem, cat. S1067), and gastrin (Tocris, cat. 3006).
[…]
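Note: spheroids exposed to the compounds for one week.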
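Throughout, for viability, T/C: percent of tumor spheroid viability relative to DMSO vehicle control wells.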

Cc1cccc(N(C)C(=O)C2C(O)CCN2c2nc(C)cc(C(F)(F)F)c2C#N)c1 (configuration not stated) + Cc1[nH]c2ccc(F)cc2c1-c1nc2c3cccnc3c3ncccc3c2[nH]1
pIC50 (second compound 0.0316 µM): < 5.00 | pIC50 (second compound 0.1 µM): < 5.00 | pIC50 (second compound 0.316 µM): < 5.00 | pIC50 (second compound 1 µM): < 5.00 | pIC50 (second compound 3.16 µM): > 7.50 | pIC50 (second compound 10 µM): > 7.50 | viability, T/C (second compound 0.0316 µM, first compound 0.0316 µM): 101% | viability, T/C (second compound 0.0316 µM, first compound 0.1 µM): 92.6% | viability, T/C (second compound 0.0316 µM, first compound 0.316 µM): 108% | viability, T/C (second compound 0.0316 µM, first compound 1 µM): 97.3% | viability, T/C (second compound 0.0316 µM, first compound 3.16 µM): 96.7% | viability, T/C (second compound 0.0316 µM, first compound 10 µM): 91.5% | viability, T/C (second compound 0.1 µM, first compound 0.0316 µM): 98.5% | viability, T/C (second compound 0.1 µM, first compound 0.1 µM): 99.8% | viability, T/C (second compound 0.1 µM, first compound 0.316 µM): 100% | viability, T/C (second compound 0.1 µM, first compound 1 µM): 94.2% | viability, T/C (second compound 0.1 µM, first compound 3.16 µM): 105% | viability, T/C (second compound 0.1 µM, first compound 10 µM): 93.2% | viability, T/C (second compound 0.316 µM, first compound 0.0316 µM): 90.2% | viability, T/C (second compound 0.316 µM, first compound 0.1 µM): 98.9% | viability, T/C (second compound 0.316 µM, first compound 0.316 µM): 98.8% | viability, T/C (second compound 0.316 µM, first compound 1 µM): 94.2% | viability, T/C (second compound 0.316 µM, first compound 3.16 µM): 90.7% | viability, T/C (second compound 0.316 µM, first compound 10 µM): 82.4% | viability, T/C (second compound 1 µM, first compound 0.0316 µM): 83.5% | viability, T/C (second compound 1 µM, first compound 0.1 µM): 78.2% | viability, T/C (second compound 1 µM, first compound 0.316 µM): 87.4% | viability, T/C (second compound 1 µM, first compound 1 µM): 88.8% | viability, T/C (second compound 1 µM, first compound 3.16 µM): 90.5% | viability, T/C (second compound 1 µM, first compound 10 µM): 68.6% | viability, T/C (second compound 3.16 µM, first compound 0.0316 µM): 30.2% | viability, T/C (second compound 3.16 µM, first compound 0.1 µM): 30.1% | viability, T/C (second compound 3.16 µM, first compound 0.316 µM): 16.5% | viability, T/C (second compound 3.16 µM, first compound 1 µM): 22.4% | viability, T/C (second compound 3.16 µM, first compound 3.16 µM): 20.8% | viability, T/C (second compound 3.16 µM, first compound 10 µM): 19.9% | viability, T/C (second compound 10 µM, first compound 0.0316 µM): 3.35% | viability, T/C (second compound 10 µM, first compound 0.1 µM): 3.56% | viability, T/C (second compound 10 µM, first compound 0.316 µM): 2.69% | viability, T/C (second compound 10 µM, first compound 1 µM): 2.33% | viability, T/C (second compound 10 µM, first compound 3.16 µM): 2.29% | viability, T/C (second compound 10 µM, first compound 10 µM): 2.63%
